{"source": "patent US7906491B2", "about": "(Univisitair Medisch Centrum Utrecht, priority 2002, dated 2011)", "key": {"[1]": {"tested_on": "Rap1", "experiment": "Rap1 activation assay (read-out for Epac) in NIH3T3-A14-Epac1 cells", "type": "cell-based", "conditions": "15 min", "experimental": "Upper panel: NIH3T3-A14-Epac1 cells were treated for 15 min with 8-Br-cAMP, and cell lysates were analyzed for activation of Rap1 and phosphorylation of CREB. Lower panel: NIH3T3-A14-Epac1 cells were treated in duplicate for 15 min with increasing concentrations of 8-pCPT-2′-O-Me-cAMP. Cells were lysed and equal amounts of cell lysate were incubated with precoupled GST-RalGDSRBD and Rap1 was assayed by immunoblotting with Rap1 antibody.\nTherefore, 8-CPT-2′-O-Me-cAMP was tested in NIH3T3-A14-Epac1 cells for the activation of Epac, using Rap1 as a read-out, and of PKA, using phosphorylation of the common PKA substrate CREB 29 as a read-out.\nNIH3T3-A14 cells, stably expressing Epac1, were grown in DMEM with 10% fetal calf serum and 2 μg/ml puromycin. NIH-OVCAR3 (Ovcar3) cells were maintained in RPMI with 10% fetal calf serum. Transient transfection of Ovcar3 cells was performed using the FuGENE 6 transfection reagent (Roche Diagnostics, Mannheim, Germany) according to the manufacturer's procedures, using 6 μg total DNA including a CMV-luciferase plasmid (0.2 μg).\nRap activation assays were performed as described previously (16-18). Briefly, cells were lysed in lysis buffer containing 10% glycerol, 1% Nonidet P-40, 50 mM Tris-Cl pH7.5, 200 mM NaCl, 2mM MgCl2, 1 μM leupeptin, 0.1 μM aprotinin, 5 mM NaF, 1 mM NaVO3. Lysates were clarified by centrifugation and incubated with GST-tagged RalGDS-RBD pre-coupled to glutathione beads to specifically pull down the GTP-bound forms of Rap1. Samples were incubated for 1 hr at 4° C. while tumbling. Beads were washed four times in lysis buffer, and the remaining fluid was removed with an insulin syringe. Proteins were eluted with Laemmli sample buffer and analyzed by sodium dodecyl sulphate (SDS)-polyacrylamide gel electrophoresis and Western blotting using Rap1 antibodies. As a control, Rap1 levels in whole cell lysates were determined."}, "[2]": {"tested_on": "type II holoenzyme of PKA (PKAII)", "experiment": "In vitro activation of cAMP-dependent protein kinase, type II holoenzyme (kemptide substrate)", "type": "biochemical", "conditions": "compared to cAMP, FIG. 5", "experimental": "(§1) Cyclic AMP dependent protein kinase I and II were reconstituted from isolated subunits and assayed for kinase activity using […] kemptide as substrate, as described previously (15)."}, "[3]": {"tested_on": "CREB", "experiment": "CREB phosphorylation in Ovcar3 cells", "type": "cell-based", "conditions": "concentration of 200 μM", "experimental": "A: 8-pCPT-2′-O-Me-cAMP stimulates cell adhesion. Upper panel: quantification of Ovcar3 cells adhering to fibronectin after treatment with increasing concentrations of 8-pCPT-2′-O-Me-cAMP. Lower panel: Ovcar3 cells were treated with increasing concentrations of 8-pCPT-2′-O-Me-cAMP for 15 min, cells were lysed and analyzed for activation of Rap1 (upper blot) and CREB (lower blot). Total Rap1 levels are shown (middle blot). B: 8-pCPT-2′-O-Me-cAMP increases the rate of cell adhesion. Upper panel: quantification of Ovcar3 cells adhering to fibronectin at various time points. Lower panel: cells were treated with 60 μM 8-pCPT-2′-O-Me-cAMP for the indicated times. Cell lysates were analyzed for activation of Rap1 (upper blot) and CREB (lower blot). Total levels of Rap1 in cell lysates are shown (middle blot). C: Ovcar3 cells were either pre-incubated at 37° C. for 30 min with the PKA inhibitor H-89 (10 μM) 30 min prior to seeding onto the wells (‘Short’) or H-89 was added 30 min prior to trypsinization and during the recovery period (‘Long’) and seeded onto wells in the absence or presence of 8-pCPT-2′-O-Me-cAMP (100 μM). Cells were allowed to adhere for 1 h. D, cAMP-induced adhesion to fibronectin is blocked by inhibitors of Rap1. […] Cells were treated with 8-Br-cAMP or 8-pCPT-2′-O-Me-cAMP and adhesion to fibronectin was determined. […]"}, "[4]": {"tested_on": "type I holoenzyme of PKA (PKAI)", "experiment": "In vitro activation of cAMP-dependent protein kinase, type I holoenzyme (kemptide substrate)", "type": "biochemical", "conditions": "compared to cAMP, FIG. 5", "experimental": "as §1"}, "[5]": {"tested_on": "human pancreatic β-cells", "conditions": "cited from earlier work"}}, "data": [{"smiles": "CO[C@@H]1[C@@H]2OP(=O)(O)OC[C@H]2O[C@H]1n1c(Sc2ccc(Cl)cc2)nc2c(N)ncnc21", "note": "[Compound I-007, 8-(4-chloro-phenylthio)-2′-O-methyladenosine-3′,5′-cyclic monophosphate]", "values": [{"measurement": "activation of Rap1", "setting": "[1]; 8-Br-cAMP 1 mM", "result": "induced the activation of Rap1 only"}, {"measurement": "concentration at which Rap1 is already activated", "setting": "[1]; dose-response", "result": 10, "unit": "µM"}, {"measurement": "ability to activate the type II holoenzyme of PKA", "setting": "[2]", "result": "greatly impaired"}, {"measurement": "CREB phosphorylation", "setting": "[3]", "result": "did not induce CREB phosphorylation"}, {"measurement": "ability to activate the type I holoenzyme of PKA", "setting": "[4]", "result": "greatly impaired"}, {"measurement": "exocytosis", "setting": "[5]", "result": "induces exocytosis"}, {"measurement": "mobilization of Ca2+ from intracellular Ca2+ stores via Epac-mediated CICR", "setting": "[5]", "result": "can induce mobilization of Ca^2+"}]}]}
